# Source: patent publication US10532018B2, “Method of whitening skin using tranexamic acid-peptide having skin whitening activity” (ANPEP INC., priority 2016, dated 2020)
# Test system: B16F1 cells
# Assay: Screening of tranexamic acid-peptides: intracellular melanin production in α-MSH-treated melanocytes
# Type: cell-based, mouse
# Details: α-MSH 20 μg/mL, 3 days, intracellular melanin at 490 nm; Control (No Treatment) = 100; test concentration not stated (1-250 μg/mL tested)
# Method: B16F1 cells, which are mouse melanocytes, were cultured in Dulbecco's modified Eagle's media (DMEM, Sigma), to which 10% fetal bovine serum (FBS, Sigma) was added, under 37° C. CO2 conditions. The cells were cultured in a 24-well plate at a concentration of 1×10^5 cells/well, and the attachment of cells was confirmed. Then, the control group was not treated with anything but only a solvent was added thereto, whereas a-MSH (20 μg/mL) was added to the positive control group. The remaining dishes were treated with α-MSH (20 μg/mL), 40 kinds of tranexamic acid-peptides, and the control group with Arbutin and AA2G, to a concentration of 1 μg/mL, 10 μg/mL, 100 μg/mL, and 250 μg/mL, respectively. Test materials were added to each dish and cultured for 3 days. After 3 days, the culture was removed by centrifugation, and the cells were lysed and intracellular melanin was collected, and observed at 490 nm to measure the amount of intracellular melanin production.
# 40 kinds of tranexamic acid-peptides were treated according to concentration, and their inhibitory effect against melanin production was measured.
row,Compound,α-MSH Inhibitory Ability (%)
1,Tranexamil-SV [Dipeptide-37 SV],64
2,Tranexamil-VP [Dipeptide-25 VP],69
3,Tranexamil-GP [Dipeptide-4 GP],80
4,Tranexamil-GK [Dipeptide-29 GK],96
5,Tranexamil-AS [Dipeptide-1 AS],98
6,Tranexamil-GH [Dipeptide-9 GH],70
7,Tranexamil-KK [Dipeptide-6 KK],83
8,Tranexamil-RP [Dipeptide-32 RP],87
9,Tranexamil-AR [Dipeptide-31 AR],93
10,Tranexamil-VR [Dipeptide-36 VR],70
11,Tranexamil-EC [Dipeptide-20 EC],61
12,Tranexamil-MA [Dipeptide-10 MA],56
13,Tranexamil-SA [Dipeptide-13 SA],81
14,Tranexamil-PF [Dipeptide-22 PF],89
15,Tranexamil-HA [Dipeptide-28 HA],87
16,Tranexamil-CC [Dipeptide-12 CC],83
17,Tranexamil-WA [Dipeptide-14 WA],65
18,Tranexamil-VV [Dipeptide-24 VV],72
19,Tranexamil-AA [Dipeptide-26 AA],92

row,Compound,α-MSH Inhibitory Ability (%)
1,Tranexamil-WE [Dipeptide-15 WE],78
2,Tranexamil-KD [Dipeptide-16 KD],81
3,Tranexamil-NA [Dipeptide-17 NA],79
4,Tranexamil-ET [Dipeptide-38 ET],52
5,Tranexamil-NT [Dipeptide-40 NT],84
6,"NC[C@H]1CC[C@H](C(=O)O)CC1 [TXA, tranexamic acid]",45
7,Tranexamil-PP [Dipeptide-35 PP],85
8,Tranexamil-TS [Dipeptide-18 TS],75
9,Tranexamil-AT [Dipeptide-2 AT],88
10,Tranexamil-PQ [Dipeptide-33 PQ],71
11,Tranexamil-MY [Dipeptide-8 MY],78
12,Tranexamil-CG [Dipeptide-39 CG],92
13,Tranexamil-TA [Dipeptide-21 TA],76
14,Tranexamil-SS [Dipeptide-19 SS],80
15,Tranexamil-QG [Dipeptide-34 QG],85
16,Tranexamil-AH [Dipeptide-11 AH],82
17,Tranexamil-KV [Dipeptide-30 KV],83
18,Tranexamil-ES [Dipeptide-5 ES],80

# Test system: skin pigmentation (melanin index)
# Assay: Clinical test of creams: skin pigmentation by Mexameter
# Type: in vivo, human
# Details: 54 women, creams with 1% tranexamic acid-dipeptide or tranexamic acid, 2 times a day
# From the text: In particular, a cream containing tranexamic acid was used as the positive control group and the standard base cream was used as the negative control group.
# The face of each subject was divided into two parts vertically and the two kinds of creams prepared above were applied to each face. The subjects were required to continuously use the creams in the morning and evening, 2 times a day for 8 weeks after washing the face.
# For the objective evaluation of changes in skin pigmentation before and after the use of the creams, the changes in pigmentation were measured using the Mexameter (CK, Germany) before the use of the creams, 2 weeks, 4 weeks, 6 weeks, and 8 weeks after the use of the creams.
# As a result of the above experiment, the tranexamic acid-dipeptide with a greater effect between the two kinds of tranexamic acid-dipeptides, was selected and, as an attempt to reduce the content in the cream, a cream containing 0.5% tranexamic acid-dipeptide was prepared. Ten women subjects were collected and the 8-week clinical experiment was performed in the same manner as described above.
row,Compound,decrease of the melanin index after 8 weeks [%]
1,"NC[C@H]1CC[C@H](C(=O)O)CC1 [TXA, tranexamic acid]",11.4

# Same assay, conditions: ten women, cream with 0.5% tranexamic acid-dipeptide or tranexamic acid, 2 times a day
row,Compound,decrease of the melanin index after 8 weeks [%]
1,"NC[C@H]1CC[C@H](C(=O)O)CC1 [TXA, tranexamic acid]",10.2

# Test system: mouse melanocytes
# Assay: Whitening effect: melanin production in α-MSH-treated melanocytes by visual inspection
# Type: cell-based
# Details: images of melanocytes, similar concentrations, 3 days
# Method: According to a preferred embodiment of the present invention, the peptides of the present invention […] the melanin production in a concentration-dependent manner. […] Additionally, when cells were treated with 4 kinds of the tranexamic acid-peptides; the peptides, to which tranexamic acid was not bound; Arbutin; and AA2G at various concentrations (1μ, 10μ, 100μ, and 250μ), cultured for 3 days, and the absorbance of the cultures were measured at 490 nm and analyzed.
# Tranexamic acid-peptides were treated according to concentration and their inhibitory effect against melanin production was measured. The mouse melanocytes were cultured in Dulbecco's modified Eagle's media (DMEM, Sigma) containing 10% fetal bovine serum ([…], Sigma) under 37° C. CO2 conditions.
# The cells were cultured in a 24-well plate at a concentration of 1×10^5 cells/well, and the attachment of cells was confirmed. Then, the control group was not treated with anything but only a solvent was added thereto, whereas a-MSH ([…]) was added to the positive control group. The remaining dishes were treated with α-MSH (20 μg/mL), 4 kinds of tranexamic acid-peptides, and the control group with Arbutin and AA2G, to a concentration of 1 μg/mL, 10 μg/mL, 100 μg/mL, and 250μ), respectively. Test materials were added to each dish and cultured for 3 days. […]
row,Compound,cell number compared to α-MSH treatment
1,OC[C@H]1O[C@@H](Oc2ccc(O)cc2)[C@H](O)[C@@H](O)[C@@H]1O [Arbutin],rapidly decreased
